Assay [1] concerns wild-type Salmonella (ASD200) live cells. The assay can be described thus: Live-cell growth assay, concentration-response (IC50/IC90) of the top 8 purchased compounds. Type of assay: cell-based, Salmonella enterica serovar Typhimurium. To be noted: for IC50: read-out: IC50 with live cells, value (95% CI), concentration that inhibits growth to 50%; for IC90: read-out: IC90 with live cells, value (95% CI), concentration that inhibits growth to 90%.

The next assay addresses recombinant FraB (Salmonella enterica subsp. enterica serovar Typhimurium, UniProt Q8ZLD0). Type of assay: biochemical. To be noted: for IC50: read-out: IC50 with recombinant FraB (mean ± SE); for Ki: read-out: Ki′ with FraB (mean ± SD).
For assay [2], the system named is fraB mutants of Salmonella. The assay can be described thus: Growth inhibition (intoxication) of fraB mutants by F-Asn. Type of assay: cell-based. To be noted: new gram-scale preparations of F-Asn.
Assay [3] relates to fraB mutants of Salmonella. Set-up: method as in PMID 27258673. To be noted: F-Asn made with the small-scale synthesis route; cited from earlier work.
[4] abbreviates: M9 minimal medium, 5 mM glucose, 1 mM F-Asn, 17-h time point, 95% CI in brackets.

Counter-ions that a name gives are not always drawn. Like-named read-outs stand apart in the source and are kept apart here.

Chain of recombinant FraB (Q8ZLD0 1-325): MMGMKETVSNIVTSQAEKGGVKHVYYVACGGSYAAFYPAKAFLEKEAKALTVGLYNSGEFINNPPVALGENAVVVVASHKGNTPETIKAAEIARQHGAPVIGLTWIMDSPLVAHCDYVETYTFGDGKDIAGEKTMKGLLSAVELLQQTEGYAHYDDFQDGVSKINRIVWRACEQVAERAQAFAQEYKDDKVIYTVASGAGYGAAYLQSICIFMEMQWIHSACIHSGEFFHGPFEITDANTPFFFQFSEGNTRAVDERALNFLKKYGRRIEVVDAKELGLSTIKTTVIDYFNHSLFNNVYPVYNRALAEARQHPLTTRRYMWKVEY

`CCOc1ccc(N2C(=O)NC(=O)/C(=C/c3cc(Cl)c(O)c(OC)c3)C2=O)cc1` [611:D03]: in assay [1] (17 h), the IC50 was 100 µM and the IC90 is 240 µM.
`COc1ccc2[nH]c(SC)nc2c1` [1582:D17]: in assay [1] (setting [4]), the IC50 was determined as 143 µM and the IC90 amounted to 318 µM. For the same compound, the IC50 at recombinant FraB is more than 1000 µM.
As usually defined, the Ki is a dissociation constant, usually derived from enzyme kinetics or from competition with a known ligand. For the compound `Nc1cc(C(=O)O)ccc1Nc1ccccc1` [1609:K19, 3-amino-4-(phenylamino)benzoic acid], in assay [1] (setting [4]), the IC50 was found to be 155 µM and the IC90 is 411 µM. Besides, at recombinant FraB, the “mode of inhibition of FraB” value is 116 ± 27; uncompetitive, the IC50 turned out to be 114 ± 3.8 µM and the Ki came out at 116 ± 27 µM.
In the same order, the values of `O=c1c(=NO)c(=O)c2ccccc12` [1669:M19, triketoindan-2-oxime] are 109 µM, 297 µM, 26 ± 4; uncompetitive, 133 ± 0.8 µM and 26 ± 4 µM.
In the case of `O=C(O)/C=C/Sc1ccccc1` [1737:K20], in assay [1] (setting [4]), the IC50 amounted to 121 µM and the IC90 worked out at 503 µM. Also, at recombinant FraB, the IC50 was more than 1000 µM.
The like results for `C/C(=N\O)C(=O)c1ccc(Cl)cc1` [1789:D13] were, in that order, 183 µM, 348 µM and more than 1000 µM.
On to `c1ccc([B-]2(c3ccccc3)[NH2+]CCO2)cc1` [3403:P13, 2,2-diphenyl-1,3,2-oxaazaborolidine internal salt], for which, in assay [1] (setting [4]), the IC50 came to 89 µM and the IC90 was determined as 184 µM. At recombinant FraB, the “mode of inhibition of FraB” value was found to be 27 ± 6 uncompetitive, the IC50 was determined as 35 ± 0.9 µM and the Ki came out at 27 ± 6 µM.
In the case of `NC(=O)C[C@H](NCC(=O)[C@@H](O)[C@H](O)[C@H](O)CO)C(=O)O` [F-Asn, fructose-asparagine], the results for the IC50 in assay [2] and in assay [3] were approximately 30 µM and approximately 20 µM, respectively.

The values are drawn from PMC10100877, “Identification of Small-Molecule Inhibitors of the Salmonella FraB Deglycase Using a Live-Cell Assay” (Microbiology Spectrum, 2023).
